The record followed here is patent publication US9115143B2, “Substituted indole derivatives as gamma secretase modulators” (Janssen Pharmaceuticals, Inc., priority 2011, dated 2015).

For one data set, the system named is Aβ38. Briefly: In vivo efficacy B-2a: brain soluble Aβ38 in non-transgenic rodents, ELISA. On the set-up: species or system mouse. The note with it: dose 30 mg/kg oral dosing, brain soluble fraction, untreated animals (Ctrl) set at 100; for response vs control in vivo at 30 mg/kg: Mus musculus, po, read-out: Aβ38 (% vs Ctrl)_Mean. The source says:
Aβ38 increasing agents can be administered in any standard form using any standard method. For example, but not limited to, Aβ38 increasing agents can be in the form of liquid, tablets or capsules that are taken orally or by injection.
To determine whether acute administration of an Aβ38 increasing agents would increase Aβ38 levels in vivo, non-transgenic rodents, e.g. mice or rats were used. Animals treated with the Aβ38 increasing agents were examined and compared to those untreated or treated with vehicle and brain levels of soluble Aβ38 and total Aβ were quantitated by standard techniques, for example, using ELISA. Treatment periods varied from hours (h) to days and were adjusted based on the results of the Aβ38 increase once a time course of onset of effect could be established.
A typical protocol for measuring Aβ38 increase in vivo is shown but it is only one of many variations that could be used to optimize the levels of detectable Aβ. For example, Aβ38 increasing agents were formulated in 20% of Captisol® (a sulfobutyl ether of β-cyclodextrin) in water or 20% hydroxypropyl β cyclodextrin. The Aβ38 increasing agents were administered as a single oral dose or by any acceptable route of administration to overnight fasted animals. After 4 h, the animals were sacrificed and Aβ38 levels were analysed.
Blood was collected by decapitation and exsanguinations in EDTA-treated collection tubes. Blood was centrifuged at 1900 g for 10 minutes (min) at 4° C. and the plasma recovered and flash frozen for later analysis. The brain was removed from the cranium and hindbrain. The cerebellum was removed and the left and right hemisphere were separated. The left hemisphere was stored at −18° C. for quantitative analysis of test compound levels. The right hemisphere was rinsed with phosphate-buffered saline (PBS) buffer and immediately frozen on dry ice and stored at −80° C. until homogenization for biochemical assays.
Mouse brains from non-transgenic animals were resuspended in 8 volumes of 0.4% DEA (diethylamine)/50 mM NaCl containing protease inhibitors (Roche-11873580001 or 04693159001) per gram of tissue, e.g. for 0.158 g brain, add 1.264 mL of 0.4% DEA. All samples were homogenized in the FastPrep-24 system (MP Biomedicals) using lysing matrix D (MPBio #6913-100) at 6 m/s for 20 seconds. Homogenates were centrifuged at 20800×g for 5 min and supernatants collected. Supernatants were centrifuged at 221.300×g for 50 min. The resulting high speed supernatants were then transferred to fresh eppendorf tubes. Nine parts of supernatant were neutralized with 1 part 0.5 M Tris-HCl pH 6.8 and used to quantify Aβtotal and Aβ38.
To quantify the amount of Aβtotal and Aβ38 in the soluble fraction of the brain homogenates, Enzyme-Linked-Immunosorbent-Assays were used. Briefly, the standards (a dilution of synthetic Aβ1-40 and Aβ1-38, ANASPEC) were prepared in 1.5 mL Eppendorf tube in Ultraculture, with final concentrations ranging from 10000 to 0.3 pg/mL. The samples and standards were co-incubated with HRPO-labelled N-terminal antibody for Aβ38 detection and with the biotinylated mid-domain antibody 4G8 for Aβtotal detection. 50 μl of conjugate/sample or conjugate/standards mixtures were then added to the antibody-coated plate (the capture antibodies selectively recognize the C-terminal end of Aβ38, antibody J&JPRD/Aβ38/5, for Aβ38 detection and the N-terminus of Aβ, antibody JRF/rAβ/2, for Aβtotal detection). The plate was allowed to incubate overnight at 4° C. in order to allow formation of the antibody-amyloid complex. Following this incubation and subsequent wash steps the ELISA for Aβ38 quantification was finished by addition of Quanta Blu fluorogenic peroxidase substrate according to the manufacturer's instructions (Pierce Corp., Rockford, Ill.). A reading was performed after 10 to 15 min (excitation 320 nm/emission 420 nm). […]

Structures are written as SMILES.

Consider `Cc1cn(-c2ccc3[nH]c(-c4nc5n(n4)CCCC5c4ccccc4C)cc3n2)cn1.Cl` (stereo not shown) [Compound 5, 5,6,7,8-tetrahydro-2-[5-(4-methyl-1H-imidazol-1-yl)-1H-pyrrolo[3,2-b]pyridin-2-yl]-8-(2-methylphenyl)-[1,2,4]triazolo[1,5-a]pyridine], for which the melting point (commonly the temperature of the solid-liquid transition) is 189.4 °C. For the same molecule, in the data set on Aβ38, the response vs control in vivo at 30 mg/kg was determined as 123%.

`Cc1cc(-c2ccc3[nH]c(-c4nc5n(n4)CCCC5c4ccccc4C)cc3n2)ccn1` (stereo not shown) [Compound 6, 5,6,7,8-tetrahydro-8-(2-methylphenyl)-2-[5-(2-methyl-4-pyridinyl)-1H-pyrrolo[3,2-b]pyridin-2-yl]-[1,2,4]triazolo[1,5-a]pyridine] gave a melting point of 266.5 °C. Besides, the response vs control in vivo at 30 mg/kg with Aβ38 is 78%.

Turning to `Cc1cc(F)ccc1C1CCCn2nc(-c3cc4cc(C#N)ccc4[nH]3)nc21` (stereo not shown) [Compound 9, 2-[8-(4-fluoro-2-methylphenyl)-5,6,7,8-tetrahydro[1,2,4]triazolo[1,5-a]pyridin-2-yl]-1H-indole-5-carbonitrile], the melting point came out at 244.9 °C. The “Aβ38 (% vs Ctrl)_Mean” value in the data set on Aβ38 (30 mg/kg) is recorded as 87 % vs Ctrl.

`Cc1ccccc1C1CCCn2nc(-c3cc4cc(C#N)ccc4[nH]3)nc21` (stereo not shown) [Compound 12, 2-[5,6,7,8-tetrahydro-8-(2-methylphenyl)[1,2,4]triazolo[1,5-a]pyridin-2-yl]-1H-indole-5-carbonitrile]: the melting point came out at 142.1 °C. Also, the “Aβ38 (% vs Ctrl)_Mean” value with Aβ38 (30 mg/kg) turned out to be 96 % vs Ctrl.

In turn, `N#Cc1ccc2[nH]c(-c3nc4n(n3)CCCC4c3ccccc3C(F)(F)F)cc2c1` (stereo not shown) [Compound 18, 2-[5,6,7,8-tetrahydro-8-[2-(trifluoromethyl)phenyl][1,2,4]triazolo[1,5-a]pyridin-2-yl]-1H-indole-5-carbonitrile] had a melting point of 229 °C. The response vs control in vivo at 30 mg/kg in the data set on Aβ38 was determined as 87%.

On to `N#Cc1ccc2[nH]c(-c3nc4n(n3)CCCC4c3cccc(OC(F)(F)F)c3)cc2c1` (stereo not shown) [Compound 20, 2-[5,6,7,8-tetrahydro-8-[3-(trifluoromethoxy)phenyl][1,2,4]triazolo[1,5-a]pyridin-2-yl]-1H-indole-5-carbonitrile], for which the melting point turned out to be 225.1 °C. In the data set with Aβ38, the response vs control in vivo at 30 mg/kg is 122%.

Consider `Cc1cn(-c2ccc3[nH]c(-c4nc5n(n4)CCOC5c4ccc(F)cc4C)cc3c2)cn1` (stereo not shown) [Compound 39, 8-(4-fluoro-2-methylphenyl)-5,6-dihydro-2-[5-(4-methyl-1H-imidazol-1-yl)-1H-indo-2-yl]-8H-[1,2,4]triazolo[5,1-c][1,4]oxazine], for which the “Aβ38 (% vs Ctrl)_Mean” value with Aβ38 stood at 132 % vs Ctrl.

`COc1c(C#N)ccc2[nH]c(-c3cn4c(n3)C(c3ccc(F)cc3C)OCC4)cc12` (stereo not shown) [Compound 46, 2-[8-(4-fluoro-2-methylphenyl)-5,6-dihydro-8H-imidazo[2,1-c][1,4]oxazin-2-yl]-4-methoxy-1H-indole-5-carbonitrile]: the melting point was 236.2 °C. The “Aβ38 (% vs Ctrl)_Mean” value with Aβ38 (30 mg/kg) is 109 % vs Ctrl.

Regarding `COc1c(C#N)ccc2[nH]c(-c3nc4n(n3)CCCC4c3ccc(F)cc3C)cc12` (stereo not shown) [Compound 59, 2-[8-(4-fluoro-2-methylphenyl)-5,6,7,8-tetrahydro[1,2,4]triazolo[1,5-a]pyridin-2-yl]-4-methoxy-1H-indole-5-carbonitrile], the response vs control in vivo at 30 mg/kg in the data set on Aβ38 was found to be 91%.

In the case of `Cc1cc(F)ccc1C1CCCn2cc(-c3cc4cc(C#N)ccc4[nH]3)nc21` (stereo not shown) [Compound 63, 2-[8-(4-fluoro-2-methylphenyl)-5,6,7,8-tetrahydroimidazo[1,2-a]pyridin-2-yl]-1H-indole-5-carbonitrile], the “Aβ38 (% vs Ctrl)_Mean” value with Aβ38 (30 mg/kg) is listed as 98 % vs Ctrl.

For the molecule `Cc1cc(F)ccc1C1CCCn2cc(-c3cc4cc(C#N)ccc4[nH]3)nc21` (stereo not shown) [Compound 64, 2-[8-(4-fluoro-2-methylphenyl)-5,6,7,8-tetrahydroimidazo[1,2-a]pyridin-2-yl]-1H-indole-5-carbonitrile], the “Aβ38 (% vs Ctrl)_Mean” value with Aβ38 (30 mg/kg) is listed as 122 % vs Ctrl.

On to `Cc1cn(-c2ccc3[nH]c(-c4nc5n(n4)CCCC5c4ccc(F)cc4C)cc3n2)cn1` (stereo not shown) [Compound 65, 8-(4-fluoro-2-methylphenyl)-5,6,7,8-tetrahydro-2-[5-(4-methyl-1H-imidazol-1-yl)-1H-pyrrolo[3,2-b]pyridin-2-yl]-[1,2,4]triazolo[1,5-a]pyridine], for which the response vs control in vivo at 30 mg/kg with Aβ38 amounted to 101%.

Take `Cc1cc(F)ccc1C1CCCn2nc(-c3cc4nc(-c5cnn(C)c5)ccc4[nH]3)nc21` (stereo not shown) [Compound 69, 8-(4-fluoro-2-methylphenyl)-5,6,7,8-tetrahydro-2-[5-(1-methyl-1H-pyrazol-4-yl)-1H-pyrrolo[3,2-b]pyridin-2-yl]-[1,2,4]triazolo[1,5-a]pyridine]: the response vs control in vivo at 30 mg/kg in the data set on Aβ38 amounted to 106%.

`Cc1cn(-c2cc3cc(-c4nc5n(n4)CCCC5c4ccc(F)cc4C)[nH]c3cn2)cn1` (stereo not shown) [Compound 71, 8-(4-fluoro-2-methylphenyl)-5,6,7,8-tetrahydro-2-[5-(4-methyl-1H-imidazol-1-yl)-1H-pyrrolo[2,3-c]pyridin-2-yl]-[1,2,4]triazolo[1,5-a]pyridine]: the response vs control in vivo at 30 mg/kg in the data set with Aβ38 was 115%.

For the molecule `Cc1cn(-c2ccc3[nH]c(-c4nc5n(n4)CCCC5c4ccc(F)cc4C)cc3c2)cn1` (stereo not shown) [Compound 73, 8-(4-fluoro-2-methylphenyl)-5,6,7,8-tetrahydro-2-[5-(4-methyl-1H-imidazol-1-yl)-1H-indol-2-yl]-[1,2,4]triazolo[1,5-a]pyridine], in the data set with Aβ38, the response vs control in vivo at 30 mg/kg is 120%.

With `COc1c(C#N)ccc2[nH]c(-c3cn4c(n3)C(c3ccc(F)cc3C)CCC4)cc12` (stereo not shown) [Compound 74, 2-[8-(4-fluoro-2-methylphenyl)-5,6,7,8-tetrahydroimidazo[1,2-a]pyridin-2-yl]-4-methoxy-1H-indole-5-carbonitrile], the response vs control in vivo at 30 mg/kg with Aβ38 turned out to be 117%.

Turning to `COc1c(-c2cnn(C)c2)ccc2[nH]c(-c3cn4c(n3)C(c3ccc(F)cc3C)OCC4)cc12` (stereo not shown) [Compound 96, 8-(4-fluoro-2-methylphenyl)-5,6-dihydro-2-[4-methoxy-5-(1-methyl-1H-pyrazol-4-yl)-1H-indol-2-yl]-8H-imidazo[2,1-c][1,4]oxazine], the response vs control in vivo at 30 mg/kg in the data set with Aβ38 is 124%.

Regarding `Cc1cc(F)ccc1C1OCCn2cc(-c3cc4cc(-c5cnn(C)c5)ccc4[nH]3)nc21` (stereo not shown) [Compound 99, 8-(4-fluoro-2-methylphenyl)-5,6-dihydro-2-[5-(1-methyl-1H-pyrazol-4-yl)-1H-indol-2-yl]-8H-imidazo[2,1-c][1,4]oxazine], in the data set with Aβ38, the response vs control in vivo at 30 mg/kg was found to be 96%.

With `COc1c(C#N)ccc2[nH]c(-c3nc4n(n3)CCOC4c3ccc(F)cc3C)cc12` (stereo not shown) [Compound 111, 2-[8-(4-fluoro-2-methylphenyl)-5,6-dihydro-8H-[1,2,4]triazolo[5,1-c][1,4]oxazin-2-yl]-4-methoxy-1H-indole-5-carbonitrile], in the data set with Aβ38, the response vs control in vivo at 30 mg/kg was determined as 107%.

`COc1c(C#N)ccc2[nH]c(-c3nc4n(n3)CCOC4c3ccc(F)cc3C)cc12` (stereo not shown) [Compound 114, 2-[8-(4-fluoro-2-methylphenyl)-5,6-dihydro-8H-[1,2,4]triazolo[5,1-c][1,4]oxazin-2-yl]-4-methoxy-1H-indole-5-carbonitrile] came in with a melting point of 257.5 °C. In addition, the “Aβ38 (% vs Ctrl)_Mean” value in the data set with Aβ38 (30 mg/kg) is listed as 88 % vs Ctrl.
